The text below walks through data of publication PMC8472786, “Inhibitory Effects of Artificial Sweeteners on Bacterial Quorum Sensing” (International Journal of Molecular Sciences, 2021).

Molecules are shown by their SMILES. Where a SMILES comes first, the peptide text is derived from it.

In the test the target is T1, LasR (Pseudomonas aeruginosa, UniProt P25084).
T1 construct: full-length LasR
T1 sequence (P25084 whole entry): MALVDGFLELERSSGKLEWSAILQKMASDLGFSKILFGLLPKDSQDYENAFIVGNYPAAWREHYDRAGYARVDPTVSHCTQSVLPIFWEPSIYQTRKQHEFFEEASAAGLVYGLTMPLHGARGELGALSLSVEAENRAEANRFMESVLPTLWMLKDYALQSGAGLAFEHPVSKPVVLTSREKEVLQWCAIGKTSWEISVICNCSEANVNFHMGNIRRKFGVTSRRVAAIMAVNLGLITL
As to the kind of experiment: microscale thermophoresis with fluorescently labeled purified LasR. In kind it is binding.
Turning to `COC(=O)[C@H](Cc1ccccc1)NC(=O)[C@@H](N)CC(=O)O` [aspartame] (H-Asp-Phe-OMe), the Kd – broadly, the concentration at which binding is half-saturated – came to 11.8 µM.
The result for `O=C1NS(=O)(=O)c2ccccc21` [saccharin] reads 12.9 µM; that for `OC[C@H]1O[C@H](O[C@]2(CCl)O[C@H](CCl)[C@@H](O)[C@@H]2O)[C@H](O)[C@@H](O)[C@H]1Cl` [sucralose], 12.8 µM.
